# Assay results from patent US20260116957A1, “PHARMACEUTICAL COMPOSITION FOR AMELIORATING ACUTE LUNG INJURY AND ACUTE WORSENING OF PULMONARY FIBROSIS” (priority 2021, published 2026).
# Read-outs that look alike come from different tables or passages of the source. Residues, ends and D or L forms follow the SMILES beside them.
# Key:
# [1] = test system: A549 alveolar epithelial cells; test: Apoptosis assay of A549 cells (flow cytometry, annexin V / propidium iodide); type: cell-based, human; conditions: for apoptotic activity compared with the parent corisin sequence: single amino acid mutants, FIG. 35; for concentration at which apoptotic activity is shown: synthetic corisin
# [2] = test system: peptidase fraction prepared from Staphylococcus nepalensis culture supernatant (putative serine protease); type: biochemical
# [3] = test system: mice with bleomycin-induced pulmonary fibrosis; test: Intratracheal corisin in mice with bleomycin-induced pulmonary fibrosis; type: in vivo, mouse; conditions: for CT scores after intratracheal corisin: 300 pg/mouse on day 20
# From the text: AE-Inducing Action of Corisin in Bleomycin-Induced Pulmonary Fibrosis Bleomycin (BLM)-induced pulmonary fibrosis in mice or rats is the most characterized and commonly used preclinical model for IPF studies (Reference Literature 28). It is unclear whether corisin exacerbates disease in BLM-induced pulmonary fibrosis. To address this question, an experimental model was developed in wild-type (WT) mice by infusing BLM via osmotic minipumps and administering corisin via intratracheal instillation (FIG. 21a). Bleomycin (BLM) or physiological saline (SAL) was infused from osmotic minipumps implanted subcutaneously in the backs of mice according to the experiment schedule for inducing acute exacerbation in mice with bleomycin-induced pulmonary fibrosis shown in FIG. 21a. Computed tomography (CT) scans were performed before and after intratracheal administration of corisin or a scrambled peptide before mouse euthanasia. Mice administered SAL via osmotic minipumps and intratracheal corisin or a scrambled peptide were used as a control. Mice were euthanized 22 days after BLM or SAL pump implantation.
# After confirming pulmonary fibrosis onset by chest CT, autologous CT score criteria (FIG. 21b) were used to assign mice into two groups with concordant CT scores.
# Wild-type (WT) mice were administered bleomycin (BLM) by osmotic minipump on day 0 and intratracheally instilled (75 μL) with corisin or a scrambled peptide (300 pg/mouse) on day 20 post-pump implantation. CTs were performed as described in Example 2. […] Next, wild-type (WT) mice were administered physiological saline (SAL) by osmotic minipump on day 0 and intratracheally instilled (75 μL) with corisin or a scrambled peptide (300 pg/mouse) on day 20 post-pump implantation.
# Next, inflammatory cells and the like in mice with BLM-induced pulmonary fibrosis which had been administered intratracheal corisin were examined. Wild-type (WT) mice were administered bleomycin (BLM) or physiological saline (SAL) by osmotic minipump on day 0 and intratracheally instilled (75 μL) with corisin or a scrambled peptide ([…]) on day 20 post-pump implantation. BALF total cell counts were determined using a NucleoCounter and cell fraction counts were conducted after Giemsa staining using WindRoof image software. Levels of serum amyloid P component (SAP), MUC-1, monocyte chemoattractant protein-1 (MCP-1), periostin, collagen I, and osteopontin were measured by enzyme immunoassay according to the manufacturer's instructions.
# Next, caspase-3 cleavage was evaluated by Western blotting and quantified. […] Collagen deposition was evaluated using Masson's trichrome staining and quantified using WindRoof imaging software. Pulmonary tissue content of hydroxyproline was measured by colorimetric analysis using a commercially available kit in accordance with the manufacturer's instructions. […] These findings indicate that corisin also exacerbates disease in BLM-induced pulmonary fibrosis.
# [4] = test system: Caki-2, HaCaT, ARPE-19, Caco-2, HIEC-6 and ihPOD cells; test: Caspase-3 cleavage by Western blotting in further epithelial cell lines; type: cell-based, human; conditions: 10 μg/mL peptide, 24 hours, all cell lines, vs scrambled peptide
# From the text: Caki-2 cell line derived from proximal tubular epithelium, HaCaT keratinocyte cell line derived from adult skin, ARPE-19 retinal pigment epithelial cell line, Caco-2 cell line derived from colon cancer, and HIEC-6 cell line derived from normal human small intestinal epithelial cells were obtained from the American Type Culture Collection (American Type Culture Collection; Manassas, VA). RPMI 1640 culture medium was purchased from Sigma-Aldrich (St. Louis, Missouri) and fetal bovine serum (FBS) was purchased from Bio Whittaker (Bio Whittaker; Walkersville, Maryland). L-glutamine, penicillin, and streptomycin were obtained from Invitrogen (Carlsbad, California). Caki-2 cells, Caco-2 cells, and ihPOD cells were cultured in RPMI 1640 culture medium, HaCaT cells in DMEM culture medium, ARPE-19 cells in DMEM/F12 culture medium, and HIEC-6 cells in DMEM culture medium.
# Each cell line was cultured until subconfluent to examine caspase-3 cleavage by Western blotting. […] Cells were stimulated with 10 μg/mL of a scrambled peptide, corisin, or corisin-like peptide, cultured for 24 hours, and then Western blotting was performed.
# [5] = test system: mice having established pulmonary fibrosis; conditions: cited from earlier work
# [6] = test system: TGFβ1 TG mice with pulmonary fibrosis; test: Corisin-induced acute exacerbation of pulmonary fibrosis in TGFβ1 TG mice; type: in vivo, mouse; conditions: TGFβ1 TG mice with fibrosis treated with isotype antibody
# Protocol: Next, TGFβ1 TG mice with pulmonary fibrosis were then assigned to two groups having corresponding computed tomography (CT) scan scores (FIG. 18a, b). CT examinations were performed as follows.
# Lung CT was performed using a LaTheta LCT-200 micro CT purchased from Hitachi Aloka Medical (Tokyo, Japan). Mice were anesthetized by inhalation of isoflurane and then placed in the prone position to collect data (Non-Patent Literature 19, Reference Literature 61). Seven to nine specialists in pulmonary radiology, blinded to treatment groups, scored the CT findings on the TGFβ1 TG mice with pulmonary fibrosis based on previously reported and validated criteria as follows. Score 1, Normal lung findings; score 2, interim findings; score 3, mild pulmonary fibrosis; score 4, interim findings; score 5, moderate pulmonary fibrosis; score 6, interim findings; and score 7, progressive pulmonary fibrosis (Non-Patent Literature 19). The same criteria were used to score pulmonary inflammation and fibrosis in a BLM-induced pulmonary fibrosis mouse model (FIG. 21b).
# A group of fibrosis-free TGFβ1 TG mice administered intratracheal corisin served as a control (FIG. 18a, b). […]
# [7] = test system: A549 alveolar epithelial cells; test: RT-PCR of mRNA expression of pro-apoptotic and anti-apoptotic factors; type: cell-based, human; conditions: 50 μM corisin, 24 hours, vs scrambled peptides
# Protocol: Next, the effect of corisin on mRNA expression of markers for pro-apoptotic factors such as Bax and anti-apoptotic factors BIRC1, BIRC5, BIRC7, Bcl2, BclXL, cyclin D1, proliferating cell nuclear antigens, and proliferating Ki-67 were examined. A549 alveolar epithelial cells were cultured in the presence of 50 μM corisin for 24 hours, total mRNA was extracted, and cDNA was prepared and amplified by RT-PCR.
# [8] = Half-life of corisin in A549 cell culture medium; conditions: A549 alveolar epithelial cell culture (cell supernatant), human alveolar (A549) cell culture system, read-out: half-life in the solution
# Protocol: In order to ascertain how quickly corisin is metabolized in a cell culture system, the half-life of corisin was investigated. A549 alveolar epithelial cells were cultured in DMEM to which 10% fetal bovine serum had been added until confluent. Next, corisin was inoculated into a cell culture medium at a final concentration of 10 micrograms/mL, and cell supernatant was collected after 0, 1, 3, 6, 12, and 24 hours. The concentration of corisin was measured by an enzyme immunoassay method, and the half-life of corisin was examined. […] Therefore, serum corisin measurements should be performed immediately after the onset of acute exacerbation.
# [9] = BLM mice, 300 μg/mouse intratracheal, vs scrambled peptide
# [10] = BLM mice, corisin vs scrambled peptide
compound,measurement,setting,value
IVMPESSGNPNAVSPAGYR [corisin N14S],apoptotic activity compared with the parent corisin sequence,[1],devoid of apoptotic activity
"O=C(O)CN(CCN(CC(=O)O)CC(=O)O)CC(=O)O [EDTA, ethylenediaminetetraacetic acid]",suppression of transglycosylase degradation,[2],neither E-64 nor EDTA suppressed transglycosylase degradation
IVMPESSGNPNAVNAAGYR [corisin P15A],apoptotic activity compared with the parent corisin sequence,[1],devoid of apoptotic activity
Cl.NCCc1ccc(S(=O)(=O)F)cc1 [Pefabloc SC],suppression of transglycosylase degradation,"[2]; 0.1, 0.3, 1 mM, 37° C. for 0.5, 1 and 2 hours",suppress transglycosylase degradation
"CC[C@H](C)[C@H](N)C(=O)N[C@H](C(=O)N[C@@H](CCSC)C(=O)N1CCC[C@H]1C(=O)N[C@@H](CCC(=O)O)C(=O)N[C@@H](CO)C(=O)N[C@@H](CO)C(=O)NCC(=O)N[C@@H](CC(N)=O)C(=O)N1CCC[C@H]1C(=O)N[C@@H](CC(N)=O)C(=O)N[C@@H](C)C(=O)N[C@H](C(=O)N[C@@H](CC(N)=O)C(=O)N1CCC[C@H]1C(=O)N[C@@H](C)C(=O)NCC(=O)N[C@@H](Cc1ccc(O)cc1)C(=O)N[C@@H](CCCNC(=N)N)C(=O)O)C(C)C)C(C)C [corisin, IVMPESSGNPNAVNPAGYR] (H-IVMPESSGNPNAVNPAGYR-OH; N-terminus and C-terminus assumed)",circulation level of serum amyloid P component,[3]; [9],increased
same,level of MUC-1,[3]; [9],increased
same,level of collagen I,[3]; [9],increased
same,level of monocyte chemoattractant protein-1 (MCP-1),[3]; [9],increased
same,level of osteopontin,[3]; [9],increased
same,level of periostin,[3]; [9],increased
same,total number of lymphocytes in BALF,[3]; [9],increased significantly
same,collagen deposition in the lungs,[3]; [10],increased
same,hydroxyproline content in the lungs,[3]; [10],increased
same,caspase-3 cleavage (Western blotting),"[3]; BLM mice, intratracheal corisin vs scrambled peptide",significantly increased
same,changes in mice administered physiological saline via osmotic minipump,[3]; SAL pump mice without fibrosis,no significant changes
same,CT scores after intratracheal corisin,[3]; WT mice with BLM-induced pulmonary fibrosis,worsened significantly
same,CT scores after intratracheal corisin,[3]; mice without pulmonary fibrosis (SAL pump),did not change
same,concentration at which apoptotic activity is shown,[1],10 pg/mL
same,concentration at which apoptotic activity is shown,[1]; A549 cells,1e+07 pg/mL
same,apoptosis-inducing activity compared to the Staphylococcus haemolyticus peptide,"[1]; synthetic peptides, A549 cells, FIG. 3",slightly higher
same,cleavage of caspase-3,[4],significantly increased
same,effect of intrapulmonary administration,[5],causes apoptosis of alveolar epithelial cells and acute exacerbation (AE)
same,CT findings after intratracheal corisin,[6],significantly worse
same,mRNA expression of anti-apoptotic factors,[7],significantly reduced
same,mRNA expression of pro-apoptotic factors such as Bax and APAF-1,[7],significantly increased
same,half-life at 10 micrograms/mL,[8],< 1 h
